According to patent publication US4451450A, “Cationic compounds useful for making radiodiagnostic agents” (New England Nuclear Corporation, priority 1981, dated 1984):

System: Rabbit Heart
Experiment: Imaging of rabbit heart (scintillation camera, intravenous injection)
Format: in vivo
Details: 2 mCi i.v., 2.5 Kg male New Zealand Albino rabbit, approximately 10 minutes after injection
Procedure: 2 mCi of Thallium-201 (as thallous chloride in physiological saline containing 0.9% benzyl alcohol) is injected intravenously into a 2.5 Kg male New Zealand Albino rabbit. The rabbit is positioned under a Searle Pho-Gamma scintillation camera in such a way that the heart and lung area are covered by the field of view.
Greater than 1 mCi of the ^99m Tc-labelled product of Example 3 is injected into a rabbit and imaged as in Example 16.

## Thallium-201
  image of the heart (reference Tl-201): sufficient counts are accumulated to produce an image of the heart analogous to that seen in clinical studies of humans
